Starred links: 1 amine or outer side, 2 acyl side, 3 side chain; linkers in the order of their positions; H or OH if unused. Non-standard residues stand in square brackets, D forms with d. Residues, ends and D or L forms follow the SMILES beside them. *: point of attachment. dPhe(4-Cl) = N[C@H](Cc1ccc(Cl)cc1)C(=O)O; NH(CH2)10NH = C(CCCCCN[*:2])CCCCN[*:1]; d2Nal = N[C@H](Cc1ccc2ccccc2c1)C(=O)O; NMeY = CN[C@@H](Cc1ccc(O)cc1)C(=O)O; NHCH2(2-pyridyl) = c1ccc(CN*)nc1; d3Pal = N[C@H](Cc1cccnc1)C(=O)O; NH(3-picolyl) = c1cncc(CN*)c1; Nicotinoyl = O=C(c1cccnc1)*; NH(CH2)8NH2 = NCCCCCCCCN*; Agmatine = N=C(N)NCCCCN*; X9 = CC(C)NCCCCCCCCCCN*; X6 = N=C(N)NCCCCCCCCN*; NHCH2CH2NHMe = CNCCN*; X10 = N=C(N)NCCCCCCN*; X13 = C(CN*)CN1CCOCC1; X5 = C1CN2CCC1C(N*)C2; NH(CH2)4OH = OCCCCN*; NEt2 = CCN(CC)*
Each compound was assayed against T1, LH release from rat pituitary cells (Rattus norvegicus, UniProt P30969) (assay: in vitro inhibition of LH release from rat pituitary cells (pA2)). Details: pA2 = negative logarithm of antagonist concentration required to shift the response curve of the agonist leuprolide to two-fold higher concentration.
T1 sequence (P30969 1-327): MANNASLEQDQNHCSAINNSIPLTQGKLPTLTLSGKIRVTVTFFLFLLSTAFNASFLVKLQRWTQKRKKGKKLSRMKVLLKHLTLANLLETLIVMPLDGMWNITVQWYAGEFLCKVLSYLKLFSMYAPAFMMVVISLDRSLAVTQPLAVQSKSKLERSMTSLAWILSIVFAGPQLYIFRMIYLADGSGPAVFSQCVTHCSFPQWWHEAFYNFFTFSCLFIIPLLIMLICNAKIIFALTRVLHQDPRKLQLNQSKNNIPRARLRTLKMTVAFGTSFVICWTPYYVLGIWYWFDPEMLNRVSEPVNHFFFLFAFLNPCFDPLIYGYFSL
Type: cell-based
Procedure: Representative compounds of the present invention were evaluated in vitro for inhibition of LH release from rat pituitary cells (pA2). Methods for the assay procedures arc described by F. Haviv, et al. J. Med. Chem., 32:2340-2344 (1989). Values of pA2 are the negative logarithms of the concentration of the particular antagonist test compound required to shift the response curve produced by the agonist leuprolide to two-fold higher concentration. Typically values of 7.0 or greater are indicative of good LHRH antagonist potency, with values of 8.0 or greater being preferred. Leuprolide LHRH agonist, disclosed and claimed in U.S. Pat. No. 4,005,063, has the structure 5-oxo-Pro^1 -His^2 -Trp^3 -Ser^4 -Tyr^5 -D-Leu^6 -Leu^7 -Arg^8 -Pro^9 -NHEt.

SMILES	LHRH antagonist potency (pA2)
CC(=O)N[C@H](Cc1ccc2ccccc2c1)C(=O)N[C@H](Cc1ccc(Cl)cc1)C(=O)N[C@H](Cc1cccnc1)C(=O)N[C@@H](CO)C(=O)N(C)[C@@H](Cc1ccc(O)cc1)C(=O)N[C@H](CCCCNC(=O)c1cccnc1)C(=O)N[C@@H](CC(C)C)C(=O)NCCCCCCCCNC(=N)N [Example 20, NAcD2Nal-D4ClPhe-D3Pal-Ser-NMeTyr-DLys(Nic)-Leu-NH--(CH2)8 NH(C=NH)NH2] (Ac-[d2Nal][dPhe(4-Cl)][d3Pal]S[NMeY][dK](Nicotinoyl)L-X6)	8.39
CC(=O)N[C@H](Cc1ccc2ccccc2c1)C(=O)N[C@H](Cc1ccc(Cl)cc1)C(=O)N[C@H](Cc1cccnc1)C(=O)N[C@@H](CO)C(=O)N(C)[C@@H](Cc1ccc(O)cc1)C(=O)N[C@H](CCCCNC(=O)c1cccnc1)C(=O)N[C@@H](CC(C)C)C(=O)NCCCCCCCCCCN [Example 17, NAcD2Nal-D4ClPhe-D3Pal-Ser-NMeTyr-DLys(Nic)-Leu-NH--(CH2)10 NH2] (Ac-[d2Nal][dPhe(4-Cl)][d3Pal]S[NMeY][dK](Nicotinoyl)L-{NH(CH2)10NH})	7.63
CC(=O)N[C@H](Cc1ccc2ccccc2c1)C(=O)N[C@H](Cc1ccc(Cl)cc1)C(=O)N[C@H](Cc1cccnc1)C(=O)N[C@@H](CO)C(=O)N(C)[C@@H](Cc1ccc(O)cc1)C(=O)N[C@H](CCCCNC(=O)c1cccnc1)C(=O)N[C@@H](CC(C)C)C(=O)NCCCN1CCOCC1 [Example 31, NAcD2Nal-D4ClPhe-D3Pal-Ser-NMeTyr-DLys(Nic)-Leu-NH--CH2 CH2 CH2 -(1-morpholine)] (Ac-[d2Nal][dPhe(4-Cl)][d3Pal]S[NMeY][dK](Nicotinoyl)L-X13)	9.30
CC(=O)N[C@H](Cc1ccc2ccccc2c1)C(=O)N[C@H](Cc1ccc(Cl)cc1)C(=O)N[C@H](Cc1cccnc1)C(=O)N[C@@H](CO)C(=O)N(C)[C@@H](Cc1ccc(O)cc1)C(=O)N[C@H](CCCCNC(=O)c1cccnc1)C(=O)N[C@@H](CC(C)C)C(=O)NC1CN2CCC1CC2 (stereo partly drawn) [Example 25, NAcD2Nal-D4ClPhe-D3Pal-Ser-NMeTyr-Dlys(Nic)-Leu-NH--(3-guinuclidine)] (Ac-[d2Nal][dPhe(4-Cl)][d3Pal]S[NMeY][dK](Nicotinoyl)L-X5)	10.02
CCN(CC)C(=O)[C@H](CC(C)C)NC(=O)[C@@H](CCCCNC(=O)c1cccnc1)NC(=O)[C@H](Cc1ccc(O)cc1)N(C)C(=O)[C@H](CO)NC(=O)[C@@H](Cc1cccnc1)NC(=O)[C@@H](Cc1ccc(Cl)cc1)NC(=O)[C@@H](Cc1ccc2ccccc2c1)NC(C)=O [Example 4, NAcD2Nal-D4ClPhe-D3Pal-Ser-NMeTyr-DLys(Nic)-Leu-N(CH2 CH3)2] (Ac-[d2Nal][dPhe(4-Cl)][d3Pal]S[NMeY][dK](Nicotinoyl)L-NEt2)	7.96
CC(=O)N[C@H](Cc1ccc2ccccc2c1)C(=O)N[C@H](Cc1ccc(Cl)cc1)C(=O)N[C@H](Cc1cccnc1)C(=O)N[C@@H](CO)C(=O)N(C)[C@@H](Cc1ccc(O)cc1)C(=O)N[C@H](CCCCNC(=O)c1cccnc1)C(=O)N[C@@H](CC(C)C)C(=O)NCCCCCCCCN [Example 18, NAcD2Nal-D4ClPhe-D3Pal-Ser-NMeTyr-DLys(Nic)-Leu-NH--(CH2)8 NH2] (Ac-[d2Nal][dPhe(4-Cl)][d3Pal]S[NMeY][dK](Nicotinoyl)L-{NH(CH2)8NH2})	8.48
CC(=O)N[C@H](Cc1ccc2ccccc2c1)C(=O)N[C@H](Cc1ccc(Cl)cc1)C(=O)N[C@H](Cc1cccnc1)C(=O)N[C@@H](CO)C(=O)N(C)[C@@H](Cc1ccc(O)cc1)C(=O)N[C@H](CCCCNC(=O)c1cccnc1)C(=O)N[C@@H](CC(C)C)C(=O)NCCCCCCCCCCNC(C)C [Example 21, NAcD2Nal-D4ClPhe-D3Pal-Ser-NMeTyr-DLys(Nic)-Leu-NH--(CH2)10 NH-isopropyl] (Ac-[d2Nal][dPhe(4-Cl)][d3Pal]S[NMeY][dK](Nicotinoyl)L-X9)	8.42
CC(=O)N[C@H](Cc1ccc2ccccc2c1)C(=O)N[C@H](Cc1ccc(Cl)cc1)C(=O)N[C@H](Cc1cccnc1)C(=O)N[C@@H](CO)C(=O)N(C)[C@@H](Cc1ccc(O)cc1)C(=O)N[C@H](CCCCNC(=O)c1cccnc1)C(=O)N[C@@H](CC(C)C)C(=O)NCc1ccccn1 [Example 23, NAcD2Nal-D4ClPhe-D3Pal-Ser-NMeTyr-DLys(Nic)-Leu-NH--CH2 -(2-pyridine)] (Ac-[d2Nal][dPhe(4-Cl)][d3Pal]S[NMeY][dK](Nicotinoyl)L-{NHCH2(2-pyridyl)})	9.18
CC(=O)N[C@H](Cc1ccc2ccccc2c1)C(=O)N[C@H](Cc1ccc(Cl)cc1)C(=O)N[C@H](Cc1cccnc1)C(=O)N[C@@H](CO)C(=O)N(C)[C@@H](Cc1ccc(O)cc1)C(=O)N[C@H](CCCCNC(=O)c1cccnc1)C(=O)N[C@@H](CC(C)C)C(=O)NCCCCO [Example 34, NAcD2Nal-D4ClPhe-D3Pal-Ser-NMeTyr-DLys(Nic)-Leu-NH--CH2 CH2 CH2 CH2 OH] (Ac-[d2Nal][dPhe(4-Cl)][d3Pal]S[NMeY][dK](Nicotinoyl)L-{NH(CH2)4OH})	8.71
CNCCNC(=O)[C@H](CC(C)C)NC(=O)[C@@H](CCCCNC(=O)c1cccnc1)NC(=O)[C@H](Cc1ccc(O)cc1)N(C)C(=O)[C@H](CO)NC(=O)[C@@H](Cc1cccnc1)NC(=O)[C@@H](Cc1ccc(Cl)cc1)NC(=O)[C@@H](Cc1ccc2ccccc2c1)NC(C)=O [Example 19, NAcD2Nal-D4ClPhe-D3Pal-Ser-NMeTyr-DLys(Nic)-Leu-NH--(CH2)2 NHCH3] (Ac-[d2Nal][dPhe(4-Cl)][d3Pal]S[NMeY][dK](Nicotinoyl)L-NHCH2CH2NHMe)	9.70
CC(=O)N[C@H](Cc1ccc2ccccc2c1)C(=O)N[C@H](Cc1ccc(Cl)cc1)C(=O)N[C@H](Cc1cccnc1)C(=O)N[C@@H](CO)C(=O)N(C)[C@@H](Cc1ccc(O)cc1)C(=O)N[C@H](CCCCNC(=O)c1cccnc1)C(=O)N[C@@H](CC(C)C)C(=O)NCc1cccnc1 [Example 24, NAcD2Nal-D4ClPhe-D3Pal-Ser-NMeTyr-DLys(Nic)-Leu-NH--CH2 -(3-pyridine)] (Ac-[d2Nal][dPhe(4-Cl)][d3Pal]S[NMeY][dK](Nicotinoyl)L-{NH(3-picolyl)})	8.30
CC(=O)N[C@H](Cc1ccc2ccccc2c1)C(=O)N[C@H](Cc1ccc(Cl)cc1)C(=O)N[C@H](Cc1cccnc1)C(=O)N[C@@H](CO)C(=O)N(C)[C@@H](Cc1ccc(O)cc1)C(=O)N[C@H](CCCCNC(=O)c1cccnc1)C(=O)N[C@@H](CC(C)C)C(=O)NCCCCNC(=N)N [Example 22, NAcD2Nal-D4ClPhe-D3Pal-Ser-NMeTyr-DLys(Nic)-Leu-NH--(CH2)4 NH(C=NH)NH2] (Ac-[d2Nal][dPhe(4-Cl)][d3Pal]S[NMeY][dK](Nicotinoyl)L-Agmatine)	10.26
CC(=O)N[C@H](Cc1ccc2ccccc2c1)C(=O)N[C@H](Cc1ccc(Cl)cc1)C(=O)N[C@H](Cc1cccnc1)C(=O)N[C@@H](CO)C(=O)N(C)[C@@H](Cc1ccc(O)cc1)C(=O)N[C@H](CCCCNC(=O)c1cccnc1)C(=O)N[C@@H](CC(C)C)C(=O)NCCCCCCNC(=N)N [Example 11, NAcD2Nal-D4ClPhe-D3Pal-Ser-NMeTyr-DLys(Nic)-Leu-NH--(CH2)6 NH(C=NH)NH2] (Ac-[d2Nal][dPhe(4-Cl)][d3Pal]S[NMeY][dK](Nicotinoyl)L-X10)	9.10

— patent publication US6191115A, “C-terminus modified heptapeptide LHRH analogs” (Abbott Laboratories, priority 1999, dated 2001)
